Source: US20240033228A1, “MESOPOROUS NANOPARTICLES SYSTEM TO INCREASE THE BIOFILM ERADICATION ACTIVITY BY MEANS OF THE CARRYING AND THE ADMINISTRATION OF AT LEAST ONE ACTIVE INGREDIENT AND RELATED PRODUCTION METHOD” (Brenta S.r.l., priority 2020, published 2024)
In brackets after ≈: the same amount, converted by molar mass.

Legend:
[1] = water; cited from earlier work
[2] = footnote a not given; cited from earlier work
S. aureus = assay: Plate antimicrobial tests; type: cell-based; conditions: plate test; strain not given
Procedure: (§1) Plate antimicrobial tests were conducted to verify the inactivity of the nanoparticles and to confirm that the antibacterial activity is linked to being loaded with at least one API. The negative control corresponds to S. aureus and K. pneumoniae without API.

K. pneumoniae = assay: Plate antimicrobial tests; type: cell-based; conditions: plate test; strain not given
Procedure: as §1

K. pneumoniae biofilm = assay: Biofilm eradication test (MBEC assay with Calgary Biofilm Device); type: cell-based, Klebsiella pneumoniae
Procedure: The eradication tests were performed by adding free or loaded and/or supported API after the maturation of a biofilm for 24 hours. VCN was tested against S. aureus and NTF against […]. […] The log reduction was calculated according to the following formula: Log reduction (LR)=Log10(mean number of CPUs without […] number of CFUs after treatment), where CFUs are Colony Formation Units. Correspondingly, the eradication percentage P was calculated according to the following formula: […] Testing was performed by MBEC assay with Calgary Biofilm Device.

S. aureus biofilm = assay: as above; type: cell-based, Staphylococcus aureus
Procedure: The eradication tests were performed by adding free or loaded and/or supported API after the maturation of a biofilm for 24 hours.
VCN was tested against S. aureus and NTF against T. pneumoniae.
The log reduction was calculated according to the following formula:
Log reduction (LR)=Log10(mean number of CPUs without reatment)/(mean number of CFUs after treatment), where CFUs are Colony Formation Units.
Correspondingly, the eradication percentage P was calculated according to the following formula: […]
Testing was performed by MBEC assay with Calgary Biofilm Device.

SMILES: COc1ccc2c(c1)c(CC(=O)O)c(C)n2C(=O)c1ccc(Cl)cc1 [INDM]
- Solubility H2O [1]: 80 µg/mL (≈ 224 µM)
- LogP [2]: 4.27

SMILES: CC(=O)N[C@@H](CS)C(=O)O [NAC, N-acetyl-L-cysteine]
- concentration below which no antibacterial activity is exhibited (S. aureus): 1 to 2 mg/mL
- concentration below which no antibacterial activity is exhibited (K. pneumoniae): 1 to 2 mg/mL
- LogP [2]: −0.03

SMILES: O=C1CN(/N=C/c2ccc([N+](=O)[O-])o2)C(=O)N1 [NTF, Nitrofurantoin]
- Solubility H2O [1]: 80 µg/mL (≈ 336 µM)
- Log Reduction Log (CFU/ml) ± SD (K. pneumoniae biofilm; K. pneumoniae preformed biofilm (24 hours), highest concentration tested): 2.5 ± 1.0 Log (CFU/ml)
- P (%) eradication percentage (K. pneumoniae biofilm; K. pneumoniae preformed biofilm, P=[1−10^−LR]*100): 99.7%

SMILES: CN[C@H](CC(C)C)C(=O)N[C@H]1C(=O)N[C@@H](CC(N)=O)C(=O)N[C@H]2C(=O)N[C@H]3C(=O)N[C@H](C(=O)N[C@H](C(=O)O)c4cc(O)cc(O)c4-c4cc3ccc4O)[C@H](O)c3ccc(c(Cl)c3)Oc3cc2cc(c3O[C@@H]2O[C@H](CO)[C@@H](O)[C@H](O)[C@H]2O[C@H]2C[C@](C)(N)[C@H](O)[C@H](C)O2)Oc2ccc(cc2Cl)[C@H]1O [VCN, vancomycin]
- Solubility H2O [1]: >50000 µg/mL
- Log Reduction Log (CFU/ml) ± SD (S. aureus biofilm; S. aureus preformed biofilm (24 hours), highest concentration tested): 2.0 ± 0.4 Log (CFU/ml)
- P (%) eradication percentage (S. aureus biofilm; S. aureus preformed biofilm, P=[1−10^−LR]*100): 99.0%
